Laboratory results from ChEMBL document CHEMBL1201862, “PubChem BioAssay data set” (2004).
Active and inactive are the calls of the source.

What was measured:
[1] = microbe, parasite or virus in culture; type: functional; details: Mycobacterium tuberculosis
[2] = cells; type: functional
[3] = viability of uninfected HEp-2 cells – cell-based, HTS, cytotoxicity control for RSV inhibitor project, dose response (AID 2410); type: functional; details: human respiratory syncytial virus
[4] = test system: BJ; assay: BJ-TERT fibroblast viability loss – cell-based, RAS-independent, luminescence, dose response (AID 1933); type: functional; details: Homo sapiens
[5] = test system: BJ; assay: cells; type: functional, cell-based; details: Homo sapiens
[6] = Trypanosoma cruzi growth suppression in host cells – NIH3T3 host cells, beta-gal luminescence, confirmation (AID 2044); type: functional, cell-based;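 also: intracellular parasites grown in NIH/3T3 mouse fibroblasts as host cells; luminescent beta-galactosidase reporter signal from transgenic T. cruzi replicating inside host cells; inhibitors lower the luminescence signal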
[7] = test system: BJ; assay: BJ-TERT-LT-ST fibroblast viability loss – cell-based, RAS-independent, luminescence, dose response (AID 1935); type: functional; details: Homo sapiens;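 also: BJ fibroblasts immortalized with TERT plus LT and ST oncogenes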
[8] = DRD fibroblast viability loss – cell-based, non-viral oncogenic, luminescence, dose response (AID 1934); type: functional; details: Homo sapiens
[9] = target: T1, Microphthalmia-associated transcription factor (Homo sapiens, UniProt O75030); assay: reducers of TRPM1 reporter luminescence, concentration series – cell-based, SK-MEL-5, cherry-picked, set 3, MITF inhibitor project, dose response (AID 493073); type: functional;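 also: SK-MEL-5 melanoma cells with luciferase driven by the MITF target TRPM1 promoter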
T1 sequence (O75030 whole entry): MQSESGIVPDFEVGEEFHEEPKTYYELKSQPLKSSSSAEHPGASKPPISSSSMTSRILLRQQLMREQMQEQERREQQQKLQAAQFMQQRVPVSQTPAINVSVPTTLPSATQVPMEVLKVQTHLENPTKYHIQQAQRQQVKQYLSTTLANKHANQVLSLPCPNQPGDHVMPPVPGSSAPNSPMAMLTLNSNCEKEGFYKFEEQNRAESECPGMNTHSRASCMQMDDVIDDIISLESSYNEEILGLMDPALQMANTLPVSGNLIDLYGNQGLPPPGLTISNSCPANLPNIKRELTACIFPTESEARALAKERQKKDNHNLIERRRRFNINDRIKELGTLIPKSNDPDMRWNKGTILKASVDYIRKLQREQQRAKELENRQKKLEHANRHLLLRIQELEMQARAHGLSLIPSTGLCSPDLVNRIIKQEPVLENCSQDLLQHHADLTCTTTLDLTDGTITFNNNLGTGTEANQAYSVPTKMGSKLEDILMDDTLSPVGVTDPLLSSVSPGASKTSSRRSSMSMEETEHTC

[10] = target: Beta-2 adrenergic receptor (Homo sapiens, UniProt P07550); assay: ADRB2 activation measured by internalization – cell-based, FAP fluorogen, flow cytometry, cherry pick 1, dose response (AID 588763); type: functional
[11] = A549 cell cytotoxicity, dose response, cytotoxicity control, plate reader, cherry-pick, antagonist series (AID 743412); type: functional, cell-based
[12] = blockers of bursicon-stimulated LGR2 cAMP reporter – cell-based, HEK293, CRE-luciferase reporter, cherry pick, set 2, dose response (AID 743343); type: functional;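 also: transfected cells were stimulated with diluted bursicon conditioned medium after compound addition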
[13] = blockade of melanocortin 4 receptor signaling – cell-based, plate reader, cherry pick, counter-screen for LGR2 antagonist project, dose response (AID 743444); type: functional;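 also: transfected HEK 293 cells stimulated with alpha-MSH peptide; potency of inhibitors of the alpha-MSH evoked signal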
[14] = target: T2, Leucine aminopeptidase (Plasmodium falciparum 3D7, UniProt Q8IL11); assay: P. falciparum M17LAP inhibitors, primary screen, biochemical, fluorogenic H-Leu-NHMec substrate, 1536-well (AID 1619); type: functional
T2 sequence (Q8IL11 whole entry): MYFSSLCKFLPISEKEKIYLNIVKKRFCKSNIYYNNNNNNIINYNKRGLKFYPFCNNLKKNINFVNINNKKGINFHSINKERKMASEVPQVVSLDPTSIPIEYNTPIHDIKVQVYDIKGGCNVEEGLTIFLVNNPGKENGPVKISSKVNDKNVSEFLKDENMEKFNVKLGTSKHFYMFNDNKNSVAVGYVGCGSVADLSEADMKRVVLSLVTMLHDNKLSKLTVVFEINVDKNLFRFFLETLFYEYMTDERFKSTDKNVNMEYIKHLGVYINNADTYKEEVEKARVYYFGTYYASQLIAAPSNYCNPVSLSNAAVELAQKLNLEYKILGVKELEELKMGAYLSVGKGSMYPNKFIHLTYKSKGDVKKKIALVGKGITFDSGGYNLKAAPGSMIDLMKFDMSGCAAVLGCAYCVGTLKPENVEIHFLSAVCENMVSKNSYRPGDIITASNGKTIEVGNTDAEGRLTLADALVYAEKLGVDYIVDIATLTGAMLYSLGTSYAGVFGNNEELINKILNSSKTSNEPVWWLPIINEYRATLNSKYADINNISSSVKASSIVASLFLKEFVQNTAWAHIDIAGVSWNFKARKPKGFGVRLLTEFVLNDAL

[15] = cells; type: functional, cell-based
[16] = cells; type: functional, cell-based; remark: listed apart in the source
[17] = target: T3, Polyadenylate-binding protein 1 (Homo sapiens, UniProt P11940); assay: MLLE binding blockers, Cy5 peptide tracer – biochemical, fluorescence polarization, Cy5-PAM2 peptide, secondary, miRNA deadenylation inhibitor project, dose response (AID 602260); type: functional; details: read-out: IC50_Mean
[18] = target: T3, Polyadenylate-binding protein 1; assay: MLLE domain peptide-binding blockers, IC50 – biochemical, fluorescence polarization, FITC-PAM2 peptide, dose response (AID 602259); type: functional; details: read-out: IC50_Mean
[19] = target: T4, Methionyl-tRNA synthetase, putative (Trypanosoma brucei brucei, UniProt Q38C91); type: functional, Trypanosoma brucei brucei strain 927/4 GUTat10.1
T4 sequence (Q38C91 whole entry): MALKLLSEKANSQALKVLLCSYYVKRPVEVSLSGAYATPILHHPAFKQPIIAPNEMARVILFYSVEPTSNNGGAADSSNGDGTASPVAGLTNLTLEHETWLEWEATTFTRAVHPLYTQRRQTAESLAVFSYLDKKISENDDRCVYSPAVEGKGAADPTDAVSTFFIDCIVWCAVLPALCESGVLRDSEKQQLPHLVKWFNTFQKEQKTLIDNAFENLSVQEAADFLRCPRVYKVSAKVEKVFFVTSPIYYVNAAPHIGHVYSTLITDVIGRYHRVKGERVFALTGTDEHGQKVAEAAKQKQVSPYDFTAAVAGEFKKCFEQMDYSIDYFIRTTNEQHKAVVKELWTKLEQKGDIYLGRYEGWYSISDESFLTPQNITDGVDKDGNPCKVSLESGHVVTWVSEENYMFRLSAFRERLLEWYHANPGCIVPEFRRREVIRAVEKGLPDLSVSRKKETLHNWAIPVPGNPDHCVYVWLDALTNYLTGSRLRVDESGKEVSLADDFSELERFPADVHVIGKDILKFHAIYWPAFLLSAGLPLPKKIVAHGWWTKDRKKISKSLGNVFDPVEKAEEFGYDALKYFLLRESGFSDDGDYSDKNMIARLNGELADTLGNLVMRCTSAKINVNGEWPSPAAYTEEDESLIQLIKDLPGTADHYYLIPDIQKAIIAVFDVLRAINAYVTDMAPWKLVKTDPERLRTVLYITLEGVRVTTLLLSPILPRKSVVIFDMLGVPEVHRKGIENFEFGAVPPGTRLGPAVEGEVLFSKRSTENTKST

[20] = Counterscreen for inhibitors of Trypanosoma brucei methionyl tRNA synthetase (MetRS): Luminescence-based cell-based high throughput dose response assay to identify compounds that are cytotoxic to Jurkat human T lymphocyte cells.; type: functional
[21] = target: T4, Methionyl-tRNA synthetase, putative; type: functional, Trypanosoma brucei brucei strain 927/4 GUTat10.1; remark: listed apart in the source
[22] = test system: HeLa; assay: ATP-based viability loss in HeLa cells – cell-based, CellTiter-Glo luminescence, cherry-pick samples, cytotoxicity control for MITF activator project, dose response (AID 540259); type: functional; details: Homo sapiens
[23] = test system: Vero; assay: mammalian cell viability reduction – secondary assay, cytotoxicity control for West Nile virus antiviral project, dose response (AID 1650); type: functional; details: Chlorocebus sabaeus
[24] = target: Eukaryotic translation initiation factor 4E (Mus musculus, UniProt P63073); assay: blockers of eIF4G binding by eIF4E – biochemical, TR-FRET, dose response (AID 855); type: functional;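 also: potency for disrupting eIF4E binding to eIF4GI seen as loss of FRET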
[25] = test system: Vero; assay: cells; type: functional; details: Chlorocebus sabaeus
[26] = toxicity toward HepG2 liver cells – cell-based, plate reader, cherry-pick, antagonist series, cytotoxicity control, dose response (AID 743416); type: functional
[27] = viability loss in HEK293 cells – cell-based, plate reader, cherry-picked samples, cytotoxicity control, dose response (AID 743446); type: functional
[28] = target: FAD-linked sulfhydryl oxidase ALR (Homo sapiens, UniProt P55789); assay: ALR-catalysed DTT oxidation blockers – biochemical, H2O2 detection, luminescence, cherry-pick, dose response (AID 493248)
FAD-linked sulfhydryl oxidase ALR, sequence (P55789 whole entry): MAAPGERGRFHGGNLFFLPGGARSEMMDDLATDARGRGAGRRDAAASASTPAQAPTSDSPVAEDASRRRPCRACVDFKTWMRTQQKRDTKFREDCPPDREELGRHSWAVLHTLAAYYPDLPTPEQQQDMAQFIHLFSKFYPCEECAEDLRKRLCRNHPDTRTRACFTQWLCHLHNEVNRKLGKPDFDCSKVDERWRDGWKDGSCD

T3 sequence (P11940 whole entry, the tested form may be a part): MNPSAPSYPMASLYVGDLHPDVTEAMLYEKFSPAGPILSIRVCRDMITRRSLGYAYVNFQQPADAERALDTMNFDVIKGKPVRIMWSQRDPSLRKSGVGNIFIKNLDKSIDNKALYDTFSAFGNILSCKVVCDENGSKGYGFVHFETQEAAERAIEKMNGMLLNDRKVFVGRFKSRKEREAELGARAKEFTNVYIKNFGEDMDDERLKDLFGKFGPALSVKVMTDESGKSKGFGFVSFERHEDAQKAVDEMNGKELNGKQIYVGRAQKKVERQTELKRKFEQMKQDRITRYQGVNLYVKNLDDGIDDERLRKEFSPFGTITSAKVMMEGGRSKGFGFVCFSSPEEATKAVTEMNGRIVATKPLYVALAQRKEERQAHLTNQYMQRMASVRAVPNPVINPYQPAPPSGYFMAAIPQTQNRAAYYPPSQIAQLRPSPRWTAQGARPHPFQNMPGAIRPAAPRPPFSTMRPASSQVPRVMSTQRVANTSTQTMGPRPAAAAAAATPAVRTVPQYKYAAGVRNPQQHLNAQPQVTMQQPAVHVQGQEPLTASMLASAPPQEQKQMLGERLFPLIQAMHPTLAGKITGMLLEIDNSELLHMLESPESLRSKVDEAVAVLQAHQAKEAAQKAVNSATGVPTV
Beta-2 adrenergic receptor, sequence (P07550 whole entry): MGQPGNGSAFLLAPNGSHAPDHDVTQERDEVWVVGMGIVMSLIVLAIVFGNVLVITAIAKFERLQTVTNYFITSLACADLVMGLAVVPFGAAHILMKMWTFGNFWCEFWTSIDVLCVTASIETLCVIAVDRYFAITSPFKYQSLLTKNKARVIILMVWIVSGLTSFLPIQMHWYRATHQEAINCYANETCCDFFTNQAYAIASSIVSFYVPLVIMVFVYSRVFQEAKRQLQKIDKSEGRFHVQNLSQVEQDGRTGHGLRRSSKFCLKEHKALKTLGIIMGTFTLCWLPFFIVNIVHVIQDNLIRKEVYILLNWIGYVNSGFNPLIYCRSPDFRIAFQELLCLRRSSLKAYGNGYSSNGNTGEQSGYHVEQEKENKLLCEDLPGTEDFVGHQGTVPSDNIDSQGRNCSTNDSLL
Eukaryotic translation initiation factor 4E, sequence (P63073 whole entry): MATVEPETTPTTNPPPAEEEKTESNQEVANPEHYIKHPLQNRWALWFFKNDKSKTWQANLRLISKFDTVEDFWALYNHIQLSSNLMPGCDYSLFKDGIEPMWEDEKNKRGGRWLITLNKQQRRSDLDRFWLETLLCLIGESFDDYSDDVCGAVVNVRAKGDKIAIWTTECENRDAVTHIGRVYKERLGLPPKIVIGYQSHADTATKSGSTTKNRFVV

Oc1ccccc1-c1nnc(COc2ccccc2)o1
CC50 [1]: > 40 µM (active) | IC50 [2]: 8.84 µM (active)

O=C(COC(=O)c1ccccc1C(=O)c1ccc(Cl)c([N+](=O)[O-])c1)NC1CC1
CC50 [3]: 10.2 µM (active) | EC50 [4]: 5.11 µM (active) | EC50 [5]: 6.82 µM (inconclusive) | EC50 [6]: 3.79 µM (active) | EC50 [7]: 92.6 µM (inconclusive) | EC50 [8]: 10.1 µM (inconclusive) | AC50 [9]: 8.92 µM (active) | EC50 [10]: 13.3 µM (inactive) | AC50 [11]: 7.05 µM (active) | AC50 [12]: 11.8 µM (active) | AC50 [13]: 15.4 µM (active)

O=C(O)CCc1nnc(SCC(=O)Nc2cccc(C(F)(F)F)c2)nc1O
IC50 [14]: 6.64 µM (active)

O=C(Cn1cnc([N+](=O)[O-])c1)NCCc1ccccc1
IC50 [15]: > 29.9 µM (inactive) | EC50 [16]: > 29.9 µM (inactive)

O=C(CSc1n[nH]c2c3ccccc3nc-2n1)Nc1ccc2c(c1)OCO2
IC50 [17]: > 66 µM (inactive) | IC50 [18]: > 66 µM (inactive) | IC50 [19]: 4.39 µM (active) | IC50 [20]: 83.3 µM (inactive) | IC50 [21]: 1.57 µM (active)

CCCc1ccc(OCc2nc(-c3ccc(NC(=O)c4cccs4)cc3)no2)cc1
AC50 [22]: 49.1 µM (active) | EC50 [10]: 0.539 µM (active)

Cc1ccc(/C=C/C(O)=C2/C(=O)N(C)C3(C)CC2c2ccccc2O3)cc1 (configuration not stated)
CC50 [23]: 41 µM (active) | IC50 [24]: > 64 µM (inactive) | CC50 [25]: 15.4 µM (active)

O=C(c1ccccc1)c1ccc2c(c1)N=C1CCCC(O)=C1C1c3ccccc3C(=O)N21 (configuration not stated)
CC50 [1]: 28.9 µM (active)

C[C@H]1CN([C@@H](C)CO)C(=O)Cc2cc(NS(=O)(=O)c3ccc(Cl)cc3)ccc2O[C@@H]1CN(C)Cc1ccccc1
AC50 [11]: 13.1 µM (active) | AC50 [26]: 16.9 µM (active) | AC50 [12]: 31.5 µM (active) | AC50 [13]: 38.7 µM (active) | AC50 [27]: 29.6 µM (active)

O=C1CCCN1CCCNc1ncnc2c1[nH]c1ccc(Cl)cc12
AC50 [28]: 0.943 µM (active) | IC50 [19]: 8.28 µM (active) | IC50 [20]: 83.3 µM (inactive) | IC50 [21]: 4.36 µM (active)

Cc1ccccc1Cn1ccc(NC(=O)c2nn(C)cc2[N+](=O)[O-])n1
CC50 [23]: 12.1 µM (active)
